# ChEMBL document CHEMBL5523671, “ω-(5-Phenyl-2H-tetrazol-2-yl)alkyl-substituted glycine amides and related compounds as inhibitors of the amine oxidase vascular adhesion protein-1 (VAP-1)” (Bioorg Med Chem, 2024)
# pIC50: −log10 of the molar value. Calls of active or inactive are those of the source. The rule behind the calls is not given here.
# Experiments:
# [1] = target: T1, Amine oxidase [copper-containing] 3 (Bos taurus) (UniProt Q9TTK6); test: Inhibition of bovine plasma VAP-1 using 6-(5-Pheny1-2H-tetrazol-2-yl)hexan-1-amine as substrate at 10 uM measured after 30 mins by UV-HPLC analysis relative to control; type: cell-free
# T1 sequence (whole entry): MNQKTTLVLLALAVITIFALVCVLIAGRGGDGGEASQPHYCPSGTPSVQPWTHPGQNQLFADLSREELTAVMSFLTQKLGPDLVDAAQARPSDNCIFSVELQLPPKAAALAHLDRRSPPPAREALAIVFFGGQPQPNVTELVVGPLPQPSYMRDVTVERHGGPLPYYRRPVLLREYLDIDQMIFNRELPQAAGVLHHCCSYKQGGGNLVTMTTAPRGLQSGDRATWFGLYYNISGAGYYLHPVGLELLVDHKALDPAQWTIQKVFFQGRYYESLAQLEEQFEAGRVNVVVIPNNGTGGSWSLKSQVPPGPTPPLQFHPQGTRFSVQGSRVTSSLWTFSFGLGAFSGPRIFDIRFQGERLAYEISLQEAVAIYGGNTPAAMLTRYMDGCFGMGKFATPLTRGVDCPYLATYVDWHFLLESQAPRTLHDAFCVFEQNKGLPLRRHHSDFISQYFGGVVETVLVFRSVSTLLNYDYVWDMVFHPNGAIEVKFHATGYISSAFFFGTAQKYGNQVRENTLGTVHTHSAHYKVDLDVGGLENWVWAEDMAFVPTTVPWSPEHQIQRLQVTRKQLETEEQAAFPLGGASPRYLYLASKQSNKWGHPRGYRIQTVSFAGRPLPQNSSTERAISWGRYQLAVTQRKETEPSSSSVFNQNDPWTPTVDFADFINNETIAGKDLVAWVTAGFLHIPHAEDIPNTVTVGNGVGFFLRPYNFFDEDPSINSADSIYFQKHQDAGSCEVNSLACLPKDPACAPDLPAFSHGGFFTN
# [2] = target: T1, Amine oxidase [copper-containing] 3 (Bos taurus); test: Inhibition of bovine plasma VAP-1 using 6-(5-Pheny1-2H-tetrazol-2-yl)hexan-1-amine as substrate at 10 uM preincubated with enzyme for 15 mins followed by substrate addition measured after 30 mins by UV-HPLC analysis relative to control; type: cell-free; conditions: time 45.0 min
# [3] = target: T2, Amine oxidase [copper-containing] 3 (Bos taurus, UniProt Q9TTK6); test: Inhibition of bovine plasma VAP-1 using 6-(5-Pheny1-2H-tetrazol-2-yl)hexan-1-amine as substrate preincubated with enzyme for 15 mins followed by substrate addition measured after 30 mins by UV-HPLC analysis; type: cell-free
# T2 sequence (Q9TTK6 whole entry): T1 sequence (whole entry)
# [4] = target: T2, Amine oxidase [copper-containing] 3; test: Inhibition of bovine plasma VAP-1 using 6-(5-Pheny1-2H-tetrazol-2-yl)hexan-1-amine as substrate measured after 30 mins by UV-HPLC analysis; type: cell-free
# [5] = target: T3, VAP-1 (amine oxidase [copper-containing] 3) (Bos taurus, UniProt Q9TTK6); test: Stability of compound assessed as bovine plasma VAP-1 mediated drug degradation by measuring parent compound remaining at 1 uM incubated for 30 mins by HPLC-MS analysis; type: ADME, cell-free; conditions: cattle, bovine plasma VAP-1 (amine oxidase [copper-containing] 3), read-out: Stability
# T3 sequence (Q9TTK6 whole entry): T1 sequence (whole entry)
# [6] = target: T3, VAP-1 (amine oxidase [copper-containing] 3); test: Stability of compound assessed as bovine plasma VAP-1 mediated drug degradation by measuring parent compound remaining at 10 uM incubated for 15 mins by HPLC-MS analysis; type: ADME, cell-free; conditions: cattle, bovine plasma VAP-1 (amine oxidase [copper-containing] 3), read-out: Stability
# [7] = Selectivity index, ratio of IC50 for porcine kidney DAO to IC50 for bovine plasma VAP-1
# [8] = target: T3, VAP-1 (amine oxidase [copper-containing] 3); test: Stability of compound assessed as bovine plasma VAP-1 mediated drug degradation by measuring parent compound remaining at 1 uM incubated for 60 mins by HPLC-MS analysis; type: ADME, cell-free; conditions: cattle, bovine plasma VAP-1 (amine oxidase [copper-containing] 3), read-out: Stability
# [9] = Selectivity index, ratio of IC50 for human plasma VAP-1 to IC50 for bovine plasma VAP-1
# [10] = target: T3, VAP-1 (amine oxidase [copper-containing] 3); test: Stability of compound assessed as bovine plasma VAP-1 mediated drug degradation by measuring parent compound remaining at 1 uM incubated for 15 mins by HPLC-MS analysis; type: ADME, cell-free; conditions: cattle, bovine plasma VAP-1 (amine oxidase [copper-containing] 3), read-out: Stability
# [11] = target: T3, VAP-1 (amine oxidase [copper-containing] 3); test: Stability of compound assessed as bovine plasma VAP-1 mediated drug degradation by measuring parent compound remaining at 10 uM incubated for 120 mins by HPLC-MS analysis; type: ADME, cell-free; conditions: cattle, bovine plasma VAP-1 (amine oxidase [copper-containing] 3), read-out: Stability
# [12] = target: T2, Amine oxidase [copper-containing] 3; test: Stability of compound assessed as bovine plasma VAP-1 mediated drug degradation by measuring formation of aldehyde metabolite at 1 to 10 uM incubated for 60 to 120 mins by HPLC-MS analysis; type: ADME, cell-free; conditions: cattle, dose lower 1 µM, time lower 60 min, dose upper 10 µM, time upper 120 min
# [13] = target: T3, VAP-1 (amine oxidase [copper-containing] 3); test: Stability of compound assessed as bovine plasma VAP-1 mediated drug degradation by measuring parent compound remaining at 1 uM incubated for 120 mins by HPLC-MS analysis; type: ADME, cell-free; conditions: cattle, bovine plasma VAP-1 (amine oxidase [copper-containing] 3), read-out: Stability
# [14] = target: T3, VAP-1 (amine oxidase [copper-containing] 3); test: Stability of compound assessed as bovine plasma VAP-1 mediated drug degradation by measuring parent compound remaining at 10 uM incubated for 30 mins by HPLC-MS analysis; type: ADME, cell-free; conditions: cattle, bovine plasma VAP-1 (amine oxidase [copper-containing] 3), read-out: Stability
# [15] = target: T3, VAP-1 (amine oxidase [copper-containing] 3); test: Stability of compound assessed as bovine plasma VAP-1 mediated drug degradation by measuring parent compound remaining at 10 uM incubated for 60 mins by HPLC-MS analysis; type: ADME, cell-free; conditions: cattle, bovine plasma VAP-1 (amine oxidase [copper-containing] 3), read-out: Stability
# [16] = target: T4, Amine oxidase [copper-containing] 3 (Homo sapiens, UniProt Q16853); test: Inhibition of human plasma VAP-1 using 6-(5-Pheny1-2H-tetrazol-2-yl)hexan-1-amine as substrate preincubated with enzyme for 15 mins followed by substrate addition measured after 120 mins by UV-HPLC analysis; type: cell-free
# T4 sequence (Q16853 whole entry): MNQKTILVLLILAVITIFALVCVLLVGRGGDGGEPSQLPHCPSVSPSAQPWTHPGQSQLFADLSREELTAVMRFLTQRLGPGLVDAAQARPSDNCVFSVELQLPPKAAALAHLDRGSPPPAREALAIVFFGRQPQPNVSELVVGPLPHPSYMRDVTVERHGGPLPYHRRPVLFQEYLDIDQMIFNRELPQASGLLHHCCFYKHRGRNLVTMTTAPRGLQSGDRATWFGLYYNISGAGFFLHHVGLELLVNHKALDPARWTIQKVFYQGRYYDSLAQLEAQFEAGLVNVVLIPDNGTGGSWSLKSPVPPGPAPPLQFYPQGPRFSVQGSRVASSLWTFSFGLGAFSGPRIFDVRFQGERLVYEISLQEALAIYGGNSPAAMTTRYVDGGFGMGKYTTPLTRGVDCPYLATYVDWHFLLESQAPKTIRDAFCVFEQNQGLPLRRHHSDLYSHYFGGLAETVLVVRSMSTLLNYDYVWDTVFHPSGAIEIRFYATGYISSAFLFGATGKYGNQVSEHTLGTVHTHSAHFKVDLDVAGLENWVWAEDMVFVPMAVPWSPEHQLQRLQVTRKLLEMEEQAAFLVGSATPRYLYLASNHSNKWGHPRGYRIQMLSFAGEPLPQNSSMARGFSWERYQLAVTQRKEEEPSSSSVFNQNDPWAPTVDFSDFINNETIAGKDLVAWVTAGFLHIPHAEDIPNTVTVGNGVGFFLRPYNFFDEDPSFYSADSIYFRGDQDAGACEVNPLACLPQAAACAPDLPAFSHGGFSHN
Compound,inhibition [1],inhibition [2],pIC50 [3],pIC50 [4],also measured
NCC(=O)NCCn1nnc(-c2ccccc2)n1,inactive,31%,< 5.00,–,–
NCC(=O)NCCCCCCn1ncc(-c2ccccc2)n1,–,–,5.15,5.21,–
Cl.N#Cc1ccc(-c2nnn(Cc3cccc(CNC(=O)CN)c3)n2)cc1,–,–,–,–,"remaining at 0.5 h, 1 µM [5]: 49%; remaining at 0.25 h, 10 µM [6]: 93%; Ratio IC50 [7]: 50; remaining at 1 h, 1 µM [8]: < 5%; Ratio IC50 [9]: 2; remaining at 0.25 h, 1 µM [10]: 74%; remaining at 2 h, 10 µM [11]: 81%; Stability [12]: Stable; remaining at 2 h, 1 µM [13]: < 5%; remaining at 0.5 h, 10 µM [14]: 95%"
NCCCCCCn1nnc(-c2ccccc2)n1,–,–,–,–,"remaining at 0.25 h, 10 µM [6]: < 5%; remaining at 2 h, 10 µM [11]: < 5%; remaining at 1 h, 10 µM [15]: < 5%; remaining at 0.5 h, 10 µM [14]: < 5%"
Cc1ccc(-c2nnn(CCCCCCNC(=O)CN)n2)cc1,–,–,5.29,5.33,–
NCC(=O)NCCCCCCCCn1nnc(-c2ccccc2)n1,–,–,5.32,5.51,–
NCC(=O)NCc1ccccc1Cn1nnc(-c2ccccc2)n1,30%,18%,< 5.00,< 5.00,"remaining at 0.25 h, 10 µM [6]: 91%; remaining at 2 h, 10 µM [11]: 56%; remaining at 1 h, 10 µM [15]: 84%; remaining at 0.5 h, 10 µM [14]: 86%"
NCC(=O)NCCCCCCn1nnc(-c2cccnc2)n1,44%,45%,< 5.00,< 5.00,–
NCC(=O)NCCCCCCCn1nnc(-c2ccccc2)n1,–,–,5.18,5.24,–
NCC(=O)NCCCCCCn1cc(-c2ccccc2)cn1,–,–,5.10,5.16,–
NCC(=O)NCCCCCCn1nnc(-c2ccc(Cl)cc2)n1,–,–,5.37,5.46,–
NCC(=O)NC1CCC(CCn2nnc(-c3ccccc3)n2)CC1 (stereo not drawn),inactive,inactive,–,–,–
NCC(=O)NCCCCCCn1nnc(-c2ccncc2)n1,–,–,5.27,5.21,–

# Continued, in another order:
inhibition [1],inhibition [2],pIC50 [3],pIC50 [4],Compound,also measured
–,–,5.20,5.21,COc1ccc(-c2nnn(CCCCCCNC(=O)CN)n2)cc1,–
43%,49%,< 5.00,< 5.00,CN(Cc1cccc(Cn2nnc(-c3ccccc3)n2)c1)C(=O)CN,"remaining at 0.25 h, 10 µM [6]: 95%; pIC50 [16]: 4.70; Ratio IC50 [9]: 2; remaining at 2 h, 10 µM [11]: 45%; remaining at 1 h, 10 µM [15]: 65%; remaining at 0.5 h, 10 µM [14]: 85%"
–,–,5.21,5.14,COC(=O)c1ccc(-c2nnn(CCCCCCNC(=O)CN)n2)cc1,–
13%,29%,< 5.00,< 5.00,NCC(=O)NCCCn1nnc(-c2ccccc2)n1,–
